{
  "source": "patent US12304894B2",
  "about": "“Derivatives of adamantyl oxadiazoles and pharmaceutically acceptable solvates, hydrates and salts thereof, pharmaceutical composition comprising same, synthesis method, suitable for use as effective and selective inhibitors of the reductase activity of the enzyme 11-beta dehydrogenase type 1 …” (PONTIFICIA UNIVERSIDAD CATOLICA DE CHILE, priority 2019, dated 2025)",
  "key": {"plasma proteins": {"test_system": "plasma proteins", "experiment": "Plasma protein binding (Transil XL PPB Binding Kit)", "type": "in vitro ADME", "text": "To carry out this study, the commercial Transil XL PPB Binding Kit, v2, Sovicell was used, following the manufacturer's recommendations."}, "[1]": {"biological_target": "T1, recombinant 11β-HSD1 enzyme (Homo sapiens (Human), UniProt P28845)", "T1 sequence (P28845 whole entry)": "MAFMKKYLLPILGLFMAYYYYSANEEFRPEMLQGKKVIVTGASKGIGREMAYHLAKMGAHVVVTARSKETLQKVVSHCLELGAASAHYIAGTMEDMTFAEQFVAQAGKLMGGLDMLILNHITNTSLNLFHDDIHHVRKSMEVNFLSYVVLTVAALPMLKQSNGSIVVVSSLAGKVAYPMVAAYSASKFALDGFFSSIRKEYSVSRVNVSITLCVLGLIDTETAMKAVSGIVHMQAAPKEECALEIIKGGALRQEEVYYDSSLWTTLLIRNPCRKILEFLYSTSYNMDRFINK", "experiment": "11β-HSD1 oxidase activity (HTRF Cortisol Kit)", "type": "biochemical", "experimental": "Determination of 11β-HSD1 Oxidase Activity\nThe Cortisol Kit (Cisbio) product was used for that purpose.\nFor the analysis, the compounds are reconstituted in DMSO in a stock of 10 mM concentration, from which serial dilutions were prepared for the efficiency curve.\nThe recombinant 11β-HSD1 enzyme dilutions were prepared in 20 mM Tris Buffer 5 mM EDTA pH 6.0 (Tris buffer).\nInitially, the enzyme concentration to be used was determined. For this purpose, a plate for HRTF was prepared with Tris buffer with 100 nM cortisol and 200 μM NADP+, including in the wells of the plate for HTRF together with the enzyme in a 4:1 ratio, respectively, and incubated for 2 hours at 37° C. After this time, the reagents of the Cortisol kit, Cortisol d2 and Cortisol cryptate in sample ratio, Cortisol d2 and cortisol cryptate 2:1:1 were added, incubating this new reaction for 1 hour at room temperature. Subsequently, the fluorescence was determined at 665 and 620 nm.\nAn HRTF plate was again prepared, where the reaction buffer, the recombinant 11β-HSD1 enzyme and the compound were added in each well in a 3:1:1 ratio, respectively. The plate was incubated at 37° C. for 2 hours. After the incubation time, the reagents of the cortisol kit, cortisol d2 and cortisol cryptate, were added as indicated above. They were then incubated at room temperature for 1 hour to finally read the fluorescence at 665 and 620 nm."}, "[2]": {"biological_target": "T1, recombinant 11β-HSD1 enzyme", "experiment": "11β-HSD1 reductase activity (HTRF Cortisol Kit)", "type": "biochemical", "settings": "266 nM cortisone, 333 μM NADPH, read-out: 11b-HSD1 reductase (HTRF) IC50", "experimental": "Determination of 11β-HSD1 Reductase Activity\nFirst, stock solutions of the compounds were prepared in DMSO at a concentration of […], of which serial dilutions were made in order to determine the efficacy curve.\nAs for the recombinant 11β-HSD1 enzyme (Cayman Chemical, MI, USA; Item No. 10007815), it was prepared in Tris Buffer 20 mM EDTA 5 mM pH 6.0 (Tris buffer) at different dilutions.\nInitially, the enzyme concentration to be used in the assays in order to evaluate the biological activity of the compounds was determined. The Cortisol Kit product (Cisbio, MA, USA; Cat no. 62CRTPEG) was used for that purpose.\nThe protocol consisted of preparing the reaction buffer, adding 266 nM cortisone and 333 μM NADPH in Tris buffer. Then, this reaction buffer is added to the wells of the HTRF (Homogeneous Time Resolved Fluorescence) reaction plate together with the enzyme in a 4:1 ratio respectively, and incubated for 2 hours at 37° C. In the case of the control wells, two wells with Tris buffer were added, without compounds.\nAfter the incubation time, the reagents of the Cortisol kit were added, Cortisol d2 and Cortisol cryptate in sample ratio, Cortisol d2 and cortisol cryptate 2:1:1, in a quantity according to the size of the well as indicated by the supplier (for the negative control of the kit, the cortisol d2 is replaced by the kit's reconstitution buffer). This reaction is incubated for 1 hour at room temperature in order to later read the fluorescence at 665 and 620 nm.\nOnce the enzyme concentration to be used has been determined, the cortisol kit protocol is continued to determine the efficacy curve for the compounds. As previously done, a plate for HTRF was prepared adding to each well of the reaction buffer, the recombinant 11β-HSD1 enzyme and the compounds to be assayed in a 3:1:1 ratio, respectively. The plate was subsequently incubated at 37° C. for 2 hours.\nAfter the incubation time, the reagents of the cortisol kit, cortisol d2 and cortisol cryptate, are added, and were incubated again for 1 hour at room temperature. Finally, the fluorescence of each well was determined at 665 and 620 nm."}},
  "data": [
    {"smiles": "Cc1cccc(CCc2nc(C34CC5CC(CC(C5)C3)C4)no2)c1", "note": "[BD-40, 1-(3-methylphenyl)-2-(3-adamantyl-1,2,4-oxadiazol-5-yl)ethane]", "values": [
      {"measurement": "plasma protein binding", "setting": "plasma proteins", "result": "98.3±1.9", "unit": "%"},
      {"measurement": "11b-HSD1 oxidase (activ rem %) 100 nM", "setting": "[1]; remaining activity at 100 nM compound", "result": 92.1, "unit": "%"},
      {"measurement": "11b-HSD1 oxidase (activ rem %) 100 uM", "setting": "[1]; remaining activity at 100 uM compound", "result": 89.9, "unit": "%"},
      {"measurement": "IC50", "setting": "[2]", "result": 0.0118, "unit": "µM"}
    ]}
  ]
}
